Patent publication US20120322869A1, “ESTER COMPOUND AND USE THEREOF” (SUMITOMO CHEMICAL COMPANY, LIMITED, priority 2010, published 2012)

How the values were obtained:
[1] = tested on: German cockroaches (Blattella germanica); experiment: Spray knock-down test with 0.1% (w/v) oil solution on German cockroaches (Test Example 2); type: in vivo; conditions: adult Blattella germanica, 1.5 ml of 0.1% (w/v) oil solution sprayed
Method: Zero point one (0.1) part of the compound of the present inventions (1) and (2) was dissolved in 10 parts of isopropyl alcohol and the solution was mixed with 89.9 parts of deodorized kerosene to prepare a 0.1% (w/v) oil solution.
Ten adult German cockroaches (Blattella germanica, 5 males and 5 females) were released in a test container (diameter 8.75 cm, 7.5 cm high, the bottom face is made of 16 mesh metallic wire), the inner face on which butter was applied, and the container was set at the bottom of a test chamber (bottom face: 46 cm×46 cm, height: 70 cm).
Each 1.5 ml of the oil solution of the compound of the present invention (1) and (2) was sprayed using a spray gun at a pressure of 0.4 kg/cm^2 from 60 cm higher than the upper face of the container. Thirty seconds after the spraying, the container was pulled out from the chamber. Two minutes after spraying, the number of knocked-down […] was counted and a knock-down ratio was determined. A knocked-down ratio was calculated by the following equation.
Knocked-down ratio=(Number of knocked-down cockroaches/Number of test cockroaches)×100

[2] = tested on: American cockroaches (Periplaneta americana); experiment: Spray knock-down test with 0.1% (w/v) oil solution on American cockroaches (Test Example 1); type: in vivo; conditions: adult Periplaneta americana, 1.5 ml of 0.1% (w/v) oil solution sprayed
Method: Zero point one (0.1) part of the compound of the present inventions (1) was dissolved in 10 parts of isopropyl alcohol and the solution was mixed with 89.9 parts of deodorized kerosene to prepare a 0.1% (w/v) oil solution.
Six adult American cockroaches (Periplaneta americana, 3 males and 3 females) were released in a test container (diameter 12.5 cm, 10 cm high, the bottom face is made of 16 mesh metallic wire), the inner face on which butter was applied, and the container was set at the bottom of a test chamber (bottom face: 46 cm×46 cm, height: 70 cm). Each 1.5 ml of the oil solution of the compound of the present invention (1) was sprayed using a spray gun at a pressure of 0.4 kg/cm^2 from 60 cm higher than the upper face of the container. Thirty seconds after the spraying, the container was pulled out from the chamber. After a prescribed time, the number of knocked-down cockroaches was counted and a knock-down ratio was determined (repeated twice). The knocked-down ratio was calculated by the following equation.
Knocked-down ratio (%) (Number of knocked-down cockroaches/Number of test cockroaches)×100

SMILES	Knock-down ratio (%) 2 minutes after spraying [1]	Knock-down ratio (%) 5 minutes after spraying [2]
C#CCC1=C(C)[C@@H](OC(=O)[C@@H]2[C@@H](/C=C(\C#N)SC)C2(C)C)CC1=O [compound of the present invention (1), (S)-2-methyl-3-(2-propynyl)cyclopent-2-en-4-on-1-yl=(1R)-trans-3-[(1E)-2-cyano-2-(methylthio)ethenyl]-2,2-dimethylcyclopropane carboxylate]	100%	100%
C=CCC1=C(C)C(OC(=O)[C@@H]2[C@@H](C=C(C#N)SC)C2(C)C)CC1=O (relative stereo) [compound of the present invention (2), 2-methyl-3-(2-propenyl)cyclopent-2-en-4-on-1-yl=(1R)-trans-3-[(1EZ)-2-cyano-2-(methylthio)ethenyl]-2,2-dimethylcyclopropanecarboxylate]	100%	–
